# Data taken from patent US10449186B2, “Phenylethynyl-substituted benzenes and heterocycles for the treatment of cancer” (UNIVERSITY OF KENTUCKY RESEARCH FOUNDATION, priority 2017, dated 2019).
# Structures can show the parent of a compound that is named as a salt. Where two headings read alike, the source gives them in different places.
# Tests used:
# [1] = system: LS174T colon cancer cells; experiment: LS174T cell proliferation assay; format: cell-based; parameters: effects on LS174T colon cancer cell proliferation (Table 3): unit not given here; conditions: for inhibition at 1 µM / inhibition at 10 µM / inhibition at 0.1 µM: Homo sapiens, LS174T
# Procedure: Cell proliferation assay. LS174T cells were grown in RPMI medium (Mediatech) supplemented with 5% fetal bovine serum and 1% penicillin/streptomycin. For cell proliferation assays, 3×10^4 cells/well growing in 12-well plates were treated with DMSO or inhibitors. The cell numbers and viability were analyzed by Vi-Cell Cell Viability Analyzer after 4 days. The IC50 values were calculated with GraphPad Prim 5.
# [2] = Table 2, 1 μM, read-out: inhibition of cell proliferation (%) of colon cancer LS174T cells
# [3] = Table 2, 10 μM, read-out: inhibition of cell proliferation (%) of colon cancer LS174T cells
# [4] = Table 2, 100 nM, read-out: inhibition of cell proliferation (%) of colon cancer LS174T cells
# [5] = read-out: inhibition of cell proliferation (%) of colon cancer LS174T cells
# [6] = read-out: inhibition of LS174T colon cancer cell proliferation
# [7] = Table 1, 1 μM, read-out: inhibition of proliferation (%) of colon cancer LS174T cells
# [8] = Table 1, 10 μM, read-out: inhibition of proliferation (%) of colon cancer LS174T cells
# [9] = 1 μM, read-out: inhibition of LS174T colon cancer cell proliferation
melting point [°C],SMILES,"inhibition at 1 µM [1, 2] [%]","inhibition at 10 µM [1, 3] [%]","inhibition at 1 µM [1, 5] [%]","inhibition at 10 µM [1, 5] [%]",other results
97 to 99,"Fc1cccc(F)c1C#Cc1ccc2cnccc2c1 [Compound 5jj, 6-((2,6-difluorophenyl)ethynyl)isoquinoline]",11.6 ± 21.3,82.4 ± 10.2,,,
220 to 222,"Nc1ccnc2ccc(C#Cc3c(F)cccc3F)cc12 [Compound 5cc, 6-((2,6-Difluorophenyl)ethynyl)quinolin-4-amine]",66.2 ± 3.1,93.9 ± 0.4,,,"inhibition at 0.1 µM [1, 4]: 0%"
115 to 117,"Fc1cccc(F)c1C#Cc1cccc2cnccc12 [Compound 5ii, 5-((2,6-Difluorophenyl)ethynyl)isoquinoline]",64.2 ± 6.1,93.6 ± 0.5,,,
120 to 122,"Fc1cccc(F)c1C#Cc1ccc2nccc(Cl)c2c1 [Compound 5aa, 4-Chloro-6-((2,6-difluorophenyl)ethynyl)quinoline]",43.8 ± 10.8,89.7 ± 4.3,,,
149 to 151,"CNc1ccc(C#Cc2c(F)cncc2F)cc1 [Compound 7c, 4-((3,5-Difluoropyridin-4-yl)ethynyl)-N-methylaniline]",,,,,effects on LS174T colon cancer cell proliferation (Table 3) ([1]; 30 nM): 20.3; effects on LS174T colon cancer cell proliferation (Table 3) ([1]; 100 nM): 49.5; effects on LS174T colon cancer cell proliferation (Table 3) ([1]; 300 nM): 62.6
156 to 158,"Nc1ccc(C#Cc2c(F)cncc2F)cc1 [Compound 7b, 4-((3,5-Difluoropyridin-4-yl)ethynyl)aniline]",,,,,effects on LS174T colon cancer cell proliferation (Table 3) ([1]; 30 nM): 11.4; effects on LS174T colon cancer cell proliferation (Table 3) ([1]; 100 nM): 30.5; effects on LS174T colon cancer cell proliferation (Table 3) ([1]; 300 nM): 36.2
144 to 145,"Fc1cccc(F)c1C#Cc1ccc(N2CCOCC2)cc1 [Compound 4b, 4-(4-((2,6-Difluorophenyl)ethynyl)phenyl)morpholine]",,,,,"inhibition at 1 µM [1, 7]: 13%; inhibition at 10 µM [1, 8]: 32.1%"
126 to 128,"CN1CCN(c2ccc(C#Cc3c(F)cccc3F)cc2)CC1 [Compound 4c, 1-(4-((2,6-Difluorophenyl)ethynyl)phenyl)-4-methylpiperazine]",,,,,"inhibition at 1 µM [1, 7]: 19.9%; inhibition at 10 µM [1, 8]: 99.6%"
,"Nc1ccc2ncc(C#Cc3c(F)cccc3F)cc2c1 [Compound 5r, 3-((2,6-Ditfluorophenyl)ethynyl)quinolin-6-amine]",,,,,"inhibition of cell proliferation (%) of colon cancer LS174T cells ([1]; Table 2, 10 μM): 9.2 ± 15.7%"
120 to 122,"Fc1cccc(F)c1C#Cc1nccc2ccccc12 [Compound 5gg, 1-((2,6-Difluorophenyl)ethynyl)isoquinoline]",35.4 ± 15,96.7 ± 0.2,,,
117 to 119,"Cn1ncc2ccc(C#Cc3c(F)cccc3F)cc21 [Compound 5k, 6-((2,6-Difluorophenyl)ethynyl)-1-methyl-1H-indazole]",85.9 ± 5.4,98.1 ± 0.4,,,"inhibition at 1 µM [1, 9]: > 75%; inhibition at 0.1 µM [1, 4]: 0%"
110 to 112,"CN(C)c1ccc(C#Cc2c(F)cccc2F)cn1 [Compound 5b, 5-((2,6-Difluorophenyl)ethynyl)-N,N-dimethylpyridin-2-amine]",77.9 ± 7,83.6 ± 7.8,,,"inhibition at 1 µM [1, 9]: > 75%; inhibition at 0.1 µM [1, 4]: 0%"
131 to 133,"Fc1cccc(F)c1C#Cc1ccc2[nH]ccc2c1 [Compound 5e, 5-((2,6-Difluorophenyl)ethynyl)-1H-indole]",52.9 ± 5.9,91.5 ± 3.5,,,
137 to 138,"CN(C)c1cnc(C#Cc2c(F)cccc2F)cn1 [Compound 5d, 5-((2,6-Difluorophenyl)ethynyl)-N,N-dimethylpyrazin-2-amine]",22.9 ± 9.8,91.6 ± 3,,,
120 to 122,"CN(C)c1ccc(C#Cc2c(F)cccc2F)nc1 [Compound 5a, 6-((2,6-Difluorophenyl)ethynyl)-N,N-dimethylpyridin-3-amine]",68.9 ± 1.3,85.2 ± 3.8,,,"inhibition at 0.1 µM [1, 4]: 15.1 ± 7.4%"
52 to 54,"Fc1cncc(F)c1C#Cc1ccccc1 [Compound 7a, 3,5-Difluoro-4-(phenylethynyl)pyridine]",,,,,effects on LS174T colon cancer cell proliferation (Table 3) ([1]; 30 nM): 5.3; effects on LS174T colon cancer cell proliferation (Table 3) ([1]; 100 nM): 24.7; effects on LS174T colon cancer cell proliferation (Table 3) ([1]; 300 nM): 12.2
148 to 150,"O=C1CCCCN1c1ccc(C#Cc2c(F)cccc2F)cc1 [Compound 4a, 1-(4-((2,6-Difluorophenyl)ethynyl)phenyl)piperidin-2-one]",,,,,"inhibition at 1 µM [1, 7]: 6.4%; inhibition at 10 µM [1, 8]: 68.1%"
,"Cn1ccc2cc(C#Cc3c(F)cccc3F)ccc21 [Compound 5f, 5-((2,6-Difluorophenyl)ethynyl)-1-methyl-1H-indole]",77.7 ± 13.6,95.2 ± 1,,,"inhibition at 1 µM [1, 9]: > 75%; inhibition at 0.1 µM [1, 4]: 3 ± 5.6%"
,"Fc1cccc(F)c1C#Cc1cnc2[nH]ccc2c1 [Compound 5l, 5-((2,6-Difluorephenyl)ethynyl)-1H-pyrrolo[2,3-b]pyridine]",,,,,"inhibition of cell proliferation (%) of colon cancer LS174T cells ([1]; Table 2, 1 μM): 17.3 ± 12.0%; inhibition of cell proliferation (%) of colon cancer LS174T cells ([1]; Table 2, 10 μM): 77.9 ± 8.9%"
,"CN(C)c1ccc(C#Cc2c(F)cncc2F)cc1 [Compound 7d, 4-((3,5-Difluoropyridin-4-yl)ethynyl)-N,N-dimethylaniline]",,,,,effects on LS174T colon cancer cell proliferation (Table 3) ([1]; 30 nM): 16.7; effects on LS174T colon cancer cell proliferation (Table 3) ([1]; 100 nM): 20.4; effects on LS174T colon cancer cell proliferation (Table 3) ([1]; 300 nM): 60.6

SMILES,melting point [°C],"inhibition at 1 µM [1, 2] [%]","inhibition at 10 µM [1, 3] [%]","inhibition at 1 µM [1, 5] [%]","inhibition at 10 µM [1, 5] [%]",other results
"Fc1cccc(F)c1C#Cc1ccnc2ccccc12 [Compound 5o, 4-((2,6-Difluorophenyl)ethynyl)quinoline]",101 to 102,,,15.4 ± 9.1,59 ± 7.5,
"Fc1cccc(F)c1C#Cc1ccc(-n2cccc2)nc1 [Compound 5c, 5-((2,6-Difluorophenyl)ethynyl)-2-(1H-pyrrol-1-yl)pyridine]",121 to 123,,,80.5 ± 6.6,95.3 ± 0.8,"inhibition at 1 µM [1, 6]: > 75%; inhibition at 0.1 µM [1, 5]: 0%"
"CN(C)c1ccnc2ccc(C#Cc3c(F)cccc3F)cc12 [Compound 5ff, 6-((2,6-Difluorophenyl)ethynyl)-N,N-dimethylquinolin-4-amine]",118 to 120,,,81.3 ± 1.4,95.5 ± 2,"inhibition at 1 µM [1, 6]: > 75%; inhibition at 0.1 µM [1, 5]: 0%"
"Fc1ccc2ccnc(C#Cc3c(F)cccc3F)c2c1 [Compound 5ll, 1-((2,6-Difluorophenyl)ethynyl)-7-fluoroisoquinoline]",177 to 178,,,71.1 ± 3.5,96.2 ± 0.1,"inhibition at 0.1 µM [1, 5]: 0%"
"Fc1cccc(F)c1C#Cc1ccc2cn[nH]c2c1 [Compound 5i, 6-((2,6-Difluorophenyl)ethynyl)-1H-indazole]",192 to 194,,,81.5 ± 2.9,97 ± 1.1,"inhibition at 1 µM [1, 6]: > 75%"
"Fc1cccc(F)c1C#Cc1ccc2[nH]ncc2c1 [Compound 5h, 5-((2,6-Difluorophenyl)ethynyl)-1H-indazole]",193 to 195,,,17.6 ± 7.9,82.9 ± 9.8,
"Fc1ccc2cc(C#Cc3c(F)cccc3F)cnc2c1 [Compound 5s, 3-((2,6-Difluorophenyl)ethynyl)-7-fluoroquinoline]",142 to 143,,,69.4 ± 4.5,95.1 ± 1.6,"inhibition at 0.1 µM [1, 5]: 14.8 ± 5.5%"
"Fc1cccc(F)c1C#Cc1ccc2nc(Cl)ccc2c1 [Compound 5z, 2-Chloro-6-((2,6-difluorophenyl)ethynyl)quinoline]",137 to 138,,,21.2 ± 11.4,63.3 ± 2.3,
"Fc1cccc(F)c1C#Cc1cc2ccccc2nc1Cl [Compound 5p, 2-Chloro-3-((2,6-difluorophenyl)ethynyl)quinoline]",137 to 138,,,28.4 ± 10.5,85.1 ± 6.2,
"Fc1cccc(F)c1C#Cc1ccc2ccccc2n1 [Compound 5m, 2-((2,6-Difluorophenyl)ethynyl)quinoline]",127 to 129,,,67.3 ± 13.6,93.8 ± 1.7,"inhibition at 0.1 µM [1, 5]: 6.1 ± 27%"
"Fc1cccc(F)c1C#Cc1ccnc2cc(Cl)ccc12 [Compound 5u, 7-Chloro-4-((2,6-difluorophenyl)ethynyl)quinoline]",130 to 132,,,36 ± 0.4,74.3 ± 0.2,
"Fc1cccc(F)c1C#Cc1cnc(Cl)c2ccccc12 [Compound 5kk, 1-Chloro-4-((2,6-difluorophenyl)ethynyl)isoquinoline]",145 to 146,,,48.1 ± 18.1,94 ± 0.5,"inhibition at 0.1 µM [1, 5]: 0.8 ± 36.1%"
"CN(C)c1ccc2cc(C#Cc3c(F)cccc3F)ccc2n1 [Compound 5ee, 6-((2,6-Difluorophenyl)ethynyl)-N,N-dimethylquinolin-2-amine]",142 to 144,,,2 ± 11.9,38.7 ± 4.3,
"CN1CCN(c2ncc(C#Cc3c(F)cccc3F)c3ccccc23)CC1 (as salt: hydrochloride) [Compound 5pp, 4-((2,6-Difluorophenyl)ethynyl)-1-(4-methylpiperazin-1-yl)isoquinoline]",70 to 72,,,,,
